Test: Inhibition of HSV-1 DNA polymerase in HSV-1 C42 plaque reduction assay

| Compound | IC50 [µM] |
| --- | --- |
| COP(=O)(OC)C(=O)OCC1CCCC1 [cyclopentylmethyl dimethoxyphosphinecarboxylate oxide] | > 500 |
| CCOP(=O)(OCC)C(=O)Oc1ccc(Cl)cc1 [4-chlorophenyl diethoxyphosphinecarboxylate oxide] | > 500 |
| CCOP(=O)(OCC)C(=O)Oc1ccc(OC)cc1 [4-methoxyphenyl diethoxyphosphinecarboxylate oxide] | > 500 |
| CCCCOP(=O)(O)C(=O)OC [sodium butyl methoxycarbonylphosphonate] | > 500 |
| CCOP(=O)(Oc1ccc(OC)cc1)C(=O)Oc1ccccc1 (stereo not given) [phenyl (4-methoxyphenoxy)(ethoxy)phosphinecarboxylate oxide] | 97 |
| CCOC(=O)c1ccc(OC(=O)P(=O)(OC)OC)cc1 [4-(ethoxycarbonyl)phenyl dimethoxyphosphinecarboxylate oxide] | > 500 |
| COc1ccc(OP(=O)(O)C(=O)O)cc1 [disodium (4-methoxyphenoxy)(oxido)phosphinecarboxylate oxide] | 90 |
| Cc1ccc(OP(=O)(Oc2ccc(C)cc2)C(=O)Oc2ccccc2)cc1 [phenyl bis(4-methylphenoxy)phosphinecarboxylate oxide] | 44 |
| CCOC(=O)c1ccc(OC(=O)P(=O)(OCC)OCC)cc1 [4-(ethoxycarbonyl)phenyl diethoxyphosphinecarboxylate oxide] | > 500 |
| CCOP(=O)(O)C(=O)Oc1ccc(OC)cc1 [sodium ethyl (4-methoxyphenoxy)carbonylphosphonate] | 165 |
| COP(=O)(O)C(=O)OCc1ccccc1 [sodium methyl (benzyloxy)carbonylphosphonate] | > 500 |
| COP(=O)(OC)C(=O)OC1CCCCC1 [cyclohexyl dimethoxyphosphinecarboxylate oxide] | > 500 |
| CCOP(=O)(Oc1ccc2c(c1)CCC2)C(=O)OC (stereo not given) [methyl (2,3-dihydro-1H-inden-5-yloxy)(ethoxy)phosphinecarboxylate oxide] | > 500 |
| O=C(O)P(=O)(O)O | 74 |
| CCOP(=O)(Oc1c(C)cccc1C)C(=O)OC (stereo not given) [methyl (2,6-dimethylphenoxy)(ethoxy)phosphinecarboxylate oxide] | > 500 |
| O=C(OCC1CCCC1)P(=O)(O)O [disodium (cyclopentylmethoxy)carbonylphosphonate] | > 500 |
| COC(=O)P(=O)(O)Oc1c(C)cccc1C [sodium 2,6-dimethylphenyl methoxycarbonylphosphonate] | > 500 |
| CCCCOC(=O)P(=O)(OC)OC [butyl dimethoxyphosphinecarboxylate oxide] | > 500 |
| CC(C)OC(=O)P(=O)(O)O [disodium isopropoxycarbonylphosphonate] | > 500 |
| COC(=O)P(=O)(OC)Oc1ccc(C(C)=O)cc1 (stereo not given) [methyl (4-acetylphenoxy)(methoxy)phosphinecarboxylate oxide] | > 500 |
| COP(=O)(OC)C(=O)Oc1ccc([N+](=O)[O-])cc1 [4-nitrophenyl dimethoxyphosphinecarboxylate oxide] | > 500 |
| COC(=O)P(=O)(OC)OC12CC3CC(CC(C3)C1)C2 (stereo not given) [methyl (1-adamantyloxy)(methoxy)phosphinecarboxylate oxide] | > 500 |
| COc1ccc(OC(=O)P(=O)(O)O)cc1 [disodium (4-methoxyphenoxy)carbonylphosphonate] | > 500 |
| O=C(Oc1ccc(Cl)cc1)P(=O)(O)O [disodium (4-chlorophenoxy)carbonylphosphonate] | 250 |
| O=C(Oc1ccccc1)P(=O)(Oc1ccccc1)Oc1ccccc1 [phenyl diphenoxyphosphinecarboxylate oxide] | 39 |
| COC(=O)P(=O)(OC(C)C)OC(C)C [methyl diisopropoxyphosphinecarboxylate oxide] | > 500 |
| O=C(Oc1ccccc1)P(=O)(O)O [disodium phenoxycarbonylphosphonate] | > 500 |
| Cc1cccc(C)c1OP(=O)(O)C(=O)O [disodium (2,6-dimethylphenoxy)(oxido)phosphinecarboxylate oxide] | > 500 |

| Compound | IC50 [µM] |
| --- | --- |
| CC(C)OP(=O)(OC(C)C)C(=O)Oc1ccc([N+](=O)[O-])cc1 [4-nitrophenyl diisopropoxyphosphinecarboxylate oxide] | > 500 |
| COP(=O)(O)C(=O)Oc1ccccc1 [sodium methyl phenoxycarbonylphosphonate] | > 500 |
| COP(=O)(O)C(=O)O [disodium methoxy(oxido)phosphinecarboxylate oxide] | > 500 |
| O=C(O)P(=O)(O)Oc1ccccc1 [disodium oxido(phenoxy)phosphinecarboxylate oxide] | 79 |
| Cc1ccc(OP(=O)(O)C(=O)O)cc1 [disodium (4-methylphenoxy)(oxido)phosphinecarboxylate oxide] | 87 |
| O=C(O)P(=O)(O)Oc1ccc2c(c1)CCC2 [disodium (2,3-dihydro-1H-inden-5-yloxy)(oxido)phosphinecarboxylate oxide] | 73 |
| COP(=O)(OC)C(=O)Oc1ccc(Cl)c(Cl)c1 [3,4-dichlorophenyl dimethoxyphosphinecarboxylate oxide] | > 500 |
| O=C(O)P(=O)(O)OC12CC3CC(CC(C3)C1)C2 [disodium (1-adamantyloxy)(oxido)phosphinecarboxylate oxide] | > 500 |
| CCOC(=O)c1ccc(OC(=O)P(=O)(O)O)cc1 [disodium [4-(ethoxycarbonyl)phenoxy]carbonylphosphonate] | > 500 |
| COP(=O)(OC)C(=O)OCc1ccccc1 [benzyl dimethoxyphosphinecarboxylate oxide] | > 500 |
| CCCCOC(=O)P(=O)(O)O [disodium butoxycarbonylphosphonate] | > 500 |
| Cc1ccc(OP(=O)(O)C(=O)Oc2ccccc2)cc1 [sodium 4-methylphenyl phenoxycarbonylphosphonate] | 54 |
| COP(=O)(OC)C(=O)OC(C)C [isopropyl dimethoxyphosphinecarboxylate oxide] | > 500 |
| CCOP(=O)(O)C(=O)Oc1ccc(Cl)cc1 [sodium ethyl (4-chlorophenoxy)carbonylphosphonate] | 500 |
| CCOC(=O)P(=O)(O)O [disodium ethoxycarbonylphosphonate] | > 500 |
| CCOC(=O)P(=O)(O)OCC [sodium ethyl ethoxycarbonylphosphonate] | > 500 |
| CCOP(=O)(O)C(=O)O [disodium ethoxy(oxido)phosphinecarboxylate oxide] | > 500 |
| CCCCOP(=O)(OCCCC)C(=O)OC [methyl dibutoxyphosphinecarboxylate oxide] | > 500 |
| O=C(OC1CCCCC1)P(=O)(O)O [disodium (cyclohexyloxy)carbonylphosphonate] | > 500 |
| O=C(OCc1ccccc1)P(=O)(O)O [disodium (benzyloxy)carbonylphosphonate] | > 500 |
| COP(=O)(OC)C(=O)Oc1ccc(C)cc1 [4-methylphenyl dimethoxyphosphinecarboxylate oxide] | > 500 |
| COP(=O)(OC)C(=O)Oc1ccccc1 [phenyl dimethoxyphosphinecarboxylate oxide] | > 500 |
| Cc1ccc(OC(=O)P(=O)(O)O)cc1 [disodium (4-methylphenoxy)carbonylphosphonate] | > 500 |
| CCOP(=O)(Oc1ccc(C(C)=O)cc1)C(=O)OC (stereo not given) [methyl (4-acetylphenoxy)(ethoxy)phosphinecarboxylate oxide] | > 500 |
| O=C(Oc1ccccc1)P(=O)(O)Oc1ccccc1 [sodium phenyl phenoxycarbonylphosphonate] | 52 |
| CCOC(=O)P(=O)(O)Oc1ccccc1 [sodium phenyl ethoxycarbonylphosphonate] | > 500 |
| COC(=O)P(=O)(O)Oc1ccc2c(c1)CCC2 [sodium 2,3-dihydro-1H-inden-5-yl methoxycarbonylphosphonate] | > 500 |

Reference: BindingDB's records for doi:10.1021/jm00356a028 (1983)
